Drawing on ChEMBL document CHEMBL3301448, “MMV Malaria Box screening against Toxoplasma gondii and Entamoeba histolytica”, this text covers IC50 for 68 compounds.

A word on the IC50: it is the concentration that gives 50% inhibition.

Each structure is given as a SMILES string.

Assay [1] deals with Entamoeba histolytica. In words: MMV: Primary screening was performed with each compound at a 30 uM final concentration and in triplicate in sealed 96-well polystyrene microtiter plates. Parasite inocula (100 ul) comprising 20000 parasites/ml were added to each well and grown at 37 degrees C in a humidified atmosphere of 5% CO2 for 72 h. Positive controls consisted of metronidazole at 1 mg/ml. The growth of E. histolytica trophozoites in each well was determined microscopically by measuring the diameters of the confluent cells in drug-containing wells relative to those in the nega- tive-control wells. It counts as functional, organism-based.

Assay [2] relates to Toxoplasma gondii. In words: MMV: A total of 100ul of inoculum was added to each well (parasite/cell ratio, ~10:1; final volume, 200 ul). Six hours after inoculation, nonadherent parasites were removed, and 100 ul of complete DMEM (1% penicillin-streptomycin, 3% FBS) supplemented with inhibitors at different concentrations (2-fold serial dilutions starting from 30 uM) was added to all except the negative-control wells. Positive controls, consisting of pyrimethamine (PYR) and sulfadiazine (SDZ) (20-mg/ml stocks in DMSO), were tested at a 2mg/ml final concentration. Each test was performed in triplicate. It counts as functional, organism-based. The note with it: 6 h.

For `Cc1cccc(-n2ncc3c(O)nc(-n4nc(C)cc4NC(=O)c4cc5ccccc5o4)nc32)c1`, the 50% inhibitory concentration (IC50) in assay [1] and in assay [2] was more than 30 µM in each case.
In the case of `O=C(Nc1ccccc1O)c1ccc(Oc2cccc(C(=O)Nc3ccccc3O)c2)cc1`, the IC50 in assay [1] is more than 30 µM; in assay [2], 13.2 µM.
As to `Oc1ccccc1CN1CCC2(CCCN(Cc3ccccc3F)C2)C1` (stereo unspecified), the IC50 in assay [1] and in assay [2] was more than 30 µM in each case.
Turning to `N=c1n(CCN2CCCCC2)c2ccccc2n1CC(O)c1cccc(Br)c1` (stereo unspecified), the IC50 in assay [1] and in assay [2] was more than 30 µM each time.
Regarding `COc1cccc(O)c1CN1CCC2(CCCN(Cc3ccc(F)cc3)C2)C1` (stereo unspecified), the IC50 in assay [1] and in assay [2] was more than 30 µM each time.
Consider `COc1cccc(Nc2nc(NCCO)c3ccccc3n2)c1`, for which the IC50 in assay [1] and in assay [2] was more than 30 µM in each case.
Consider `Cc1ccc(-c2cc(C(=O)Nc3ccc(S(=O)(=O)N4CCCCC4)cc3)[nH]n2)c(O)c1`, for which the IC50 in assay [1] and in assay [2] was more than 30 µM in each case.
Take `O=C(NCc1ccco1)C1CCN(S(=O)(=O)c2ccc(Cl)cc2)CC1`: the IC50 in assay [1] and in assay [2] was more than 30 µM in each case.
As to `COc1ccc(C(=O)Nc2ccc3nc(N4CCCCC4)cc(C)c3c2)cc1OC`, the results for the 50% inhibitory concentration (IC50) in assay [1] and in assay [2] were more than 30 µM and 25.7 µM, respectively.
As to `COc1ccc(N2CCN(C(CNC(=O)C3CCCCC3)c3ccc4c(c3)OCO4)CC2)cc1` (stereo unspecified), the IC50 in assay [1] is more than 30 µM; in assay [2], 26.6 µM.
`FC(F)(F)c1ccc(Nc2nnnc3ccccc23)cc1`: the IC50 in assay [1] and in assay [2] was more than 30 µM throughout.
As for `c1ccc(-c2ccc(-c3nc4ccccc4[nH]3)cc2)cc1`, the half-maximal inhibitory concentration (IC50) in assay [1] and in assay [2] was more than 30 µM each time.
For the compound `COc1cccc(NC(=O)Cn2c(C)c(C#N)c3ccccc32)c1`, the IC50 in assay [1] and in assay [2] was more than 30 µM in each case.
In the case of `Cn1c(=O)c2cc(C(=O)NCCCN3CCCCCC3)sc2c2ccccc21`, the IC50 in assay [1] and in assay [2] was more than 30 µM throughout.
For `Cc1[nH]c(-c2ccc(F)cc2)cc1C(=O)NC1CCN(Cc2ccccc2)CC1`, the IC50 in assay [1] and in assay [2] was more than 30 µM throughout.
Consider `COc1ccc(CCN2CCC(CN(C)Cc3cnn(-c4ccccc4)c3)CC2)cc1`, for which the IC50 in assay [1] and in assay [2] was more than 30 µM each time.
For the compound `O=C(NC(c1ccccc1)c1ccc2cccnc2c1O)c1ccccc1` (stereo unspecified), the IC50 in assay [1] and in assay [2] was more than 30 µM each time.
In the case of `O=C(NC1CCCC1)c1ccc(N2CCC(NCc3cccc(C(F)(F)F)c3)CC2)cc1`, the IC50 in assay [1] and in assay [2] was more than 30 µM each time.
As for `CCOc1cc(Br)c(C(C)NC(=O)c2cccc(OC)c2)cc1OCC` (stereo unspecified), the IC50 in assay [1] and in assay [2] was more than 30 µM throughout.
On to `CC(C)=CCN1CCC(C(=O)Nc2ccc(-c3nc4ccccc4[nH]3)cc2)CC1`, for which the IC50 in assay [1] and in assay [2] was more than 30 µM in each case.
In the case of `CCN(CC)CCn1c(=N)n(CC(O)c2ccc(Cl)c(Cl)c2)c2ccccc21` (stereo unspecified), the IC50 in assay [1] and in assay [2] was more than 30 µM each time.
For the compound `CCOc1cc(Cl)c(C(C)NC(=O)c2cccc(OC)c2)cc1OCC` (stereo unspecified), the IC50 in assay [1] and in assay [2] was more than 30 µM in each case.
Consider `O=C(CCc1ccco1)NC1CCN(CC2(c3ccc(Cl)cc3)CCC2)CC1`, for which the IC50 is more than 30 µM in assay [1] and 24 µM in assay [2].
The matching figures for `FC(F)(F)c1cccc(Nc2nc(-c3ccccc3)nc3ncccc23)c1`: more than 30 µM and more than 30 µM.
The matching figures for `CCN1CCN(c2cc(C)c3cc(NC(=O)c4ccc(OC)c(OC)c4)ccc3n2)CC1`: more than 30 µM and more than 30 µM.
As to `Cc1ccc(Cl)cc1N1CCN(CCCNC(=O)C2CCN(c3nc4ccccc4[nH]3)CC2)CC1`, the IC50 in assay [1] and in assay [2] was more than 30 µM throughout.
On to `COc1ccc(CNC2CCN(c3ccc(NC(=O)c4cccc(Cl)c4)cc3)CC2)cc1OC`, for which the IC50 in assay [1] and in assay [2] was more than 30 µM throughout.
As to `Cc1ccc(CSCc2ccc(C(=O)NC3CC3)o2)cc1`, the IC50 in assay [1] is more than 30 µM; in assay [2] it was 22.3 µM.
The matching figures for `CC(NCc1ccccc1)c1cc(Cl)ccc1O` (stereo unspecified): more than 30 µM and 21.4 µM.
Consider `CN1CCN(c2c3c(c(C#N)c4nc5ccccc5n24)CCC3)CC1`, for which the IC50 in assay [1] and in assay [2] was more than 30 µM throughout.
On to `O=C(c1ccccc1F)N(Cc1ccc(Cl)cc1)c1ccccn1`, for which the IC50 in assay [1] and in assay [2] was more than 30 µM throughout.
In the case of `COc1ccc(C(=O)Nc2ccc(Cl)cc2C(=O)Nc2ccncc2)cc1`, the IC50 in assay [1] and in assay [2] was more than 30 µM in each case.
For `O=C(Nc1ccc(CN2CCOCC2)cc1)c1ccc(-c2ccc(Br)cc2)o1`, the IC50 in assay [1] and in assay [2] was more than 30 µM each time.
Take `CC(=O)NCCc1nc2ccccc2n1Cc1ccc(C(C)C)cc1`: the IC50 in assay [1] and in assay [2] was more than 30 µM in each case.
In the case of `CCN(CC)CCNc1ncnc2c1[nH]c1ccc(Br)cc12`, the IC50 in assay [1] and in assay [2] was more than 30 µM each time.
Regarding `CN(C)c1ccc(-c2nc3cc(N)ccc3[nH]2)cc1`, the concentration for half-maximal inhibition (IC50) in assay [1] and in assay [2] was more than 30 µM each time.
Take `O=C(CSc1ccc2nnc(-c3cccc(F)c3)n2n1)Nc1ccc2c(c1)OCO2`: the half-maximal inhibitory concentration (IC50) in assay [1] and in assay [2] was more than 30 µM each time.
Regarding `Cc1c(C)n(Cc2ccc(F)cc2)c2ccc(C(=O)NCc3ccco3)cc12`, the IC50 in assay [1] and in assay [2] was more than 30 µM in each case.
Consider `CCN(CC)c1ccc(NC(=O)c2cccs2)cc1`, for which the IC50 in assay [1] and in assay [2] was more than 30 µM throughout.
As to `CCCCNCC(O)(c1ccc(Cl)cc1)c1ccc(Cl)cc1`, the 50% inhibitory concentration (IC50) in assay [1] and in assay [2] was more than 30 µM each time.
Consider `CCCC(c1nnnn1C1CCCCC1)N1CCN(C(=O)c2ccco2)CC1` (stereo unspecified), for which the IC50 in assay [1] and in assay [2] was more than 30 µM each time.
On to `CC(C)(C)C(=O)Nc1ccc(C(=O)Nc2cccc(-c3nc4ccccc4[nH]3)c2)cc1`, for which the IC50 in assay [1] and in assay [2] was more than 30 µM each time.
Turning to `COc1ccc(-c2nonc2NC(=O)c2cccc(C)c2)cc1OC`, the IC50 in assay [1] and in assay [2] was more than 30 µM throughout.
Take `COc1cccc(-c2nn(C)c3sc(C(=O)NCCN4CCN(c5ccccc5F)CC4)cc23)c1`: the IC50 in assay [1] and in assay [2] was more than 30 µM each time.
For `Cc1ccc(CN2CCC(C(=O)Nc3ccc(-c4cc5ccccc5[nH]4)cc3)CC2)o1`, the IC50 in assay [1] and in assay [2] was more than 30 µM throughout.
Consider `O=C(Nc1ccc(N2CCCCC2)c(Cl)c1)c1ccc(Br)o1`, for which the IC50 in assay [1] and in assay [2] was more than 30 µM each time.
Turning to `Cc1cc(C)c2nc(N3CCC(C(=O)NCCCN4CCC(N5CCCCC5)CC4)CC3)sc2c1`, the IC50 in assay [1] and in assay [2] was more than 30 µM throughout.
For the compound `O=C(Nc1ccsc1C(=O)NC1CCCCC1)c1ccc(F)cc1`, the IC50 in assay [1] and in assay [2] was more than 30 µM each time.
For the compound `O=C(Nc1cccc(C(F)(F)F)c1)c1cc(Cl)ccc1O`, the IC50 in assay [1] and in assay [2] was more than 30 µM in each case.
On to `CC(C)(C)c1ccc(C(=O)Nc2nc3ccccc3s2)cc1`, for which the IC50 in assay [1] and in assay [2] was more than 30 µM in each case.
With `CCOc1cccc2sc(N(Cc3cccnc3)C(=O)C3CCCCC3)nc12`, the IC50 in assay [1] and in assay [2] was more than 30 µM in each case.
Consider `COc1ccccc1CNC(=O)C1c2ccccc2C(=O)N(CC(C)C)C1c1cccs1` (stereo unspecified), for which the IC50 in assay [1] and in assay [2] was more than 30 µM each time.
For `COc1ccc(C2N(C)c3ccccc3N2C)cc1`, the 50% inhibitory concentration (IC50) in assay [1] and in assay [2] was more than 30 µM throughout.
For the compound `CCN(CC)c1cc(C)c2cc(NC(=O)c3cccc(OC)c3)ccc2n1`, the IC50 in assay [1] and in assay [2] was more than 30 µM throughout.
Consider `CCOc1ccc(/C=C/c2nc(=O)c3ccccc3o2)cc1`, for which the IC50 in assay [1] and in assay [2] was more than 30 µM throughout.
For the compound `O=C(Nc1ccccc1O)c1ccc(-c2ccc(Cl)cc2Cl)o1`, the IC50 in assay [1] and in assay [2] was more than 30 µM each time.
As for `CC(C)OCc1cc(CN2CCN(c3cccc(Cl)c3)CC2)c(O)c2ncccc12`, the IC50 in assay [1] and in assay [2] was more than 30 µM throughout.
As to `O=C(Nc1ccc(F)c(Cl)c1)Nc1ccc(Cl)c(Cl)c1`, the IC50 in assay [1] was more than 30 µM; in assay [2] it was 26.5 µM.
The matching figures for `CCOc1ccc(-c2nc(NC(=O)c3cccc(S(C)(=O)=O)c3)sc2C)cc1`: more than 30 µM and more than 30 µM.
The matching figures for `COc1ccccc1N1CCN(C(CNS(=O)(=O)c2ccc(Cl)cc2)c2cccnc2)CC1` (stereo unspecified): more than 30 µM and more than 30 µM.
Regarding `CCCc1c(C)nc2ccccc2c1O`, the IC50 in assay [1] and in assay [2] was more than 30 µM in each case.
Turning to `CCOc1c(Cl)cc(CNC(C)C(O)c2ccccc2)cc1OC` (stereo unspecified), the IC50 in assay [1] and in assay [2] was more than 30 µM throughout.
Take `CCCN(CCC)CCCNC(=O)c1cc2c(-c3ccc(OC)c(OC)c3)nn(C)c2s1`: the IC50 in assay [1] and in assay [2] was more than 30 µM throughout.
Turning to `CCN(CC)CCCNc1nc(-c2ccc(Cl)cc2)nc2ccccc12`, the IC50 in assay [1] and in assay [2] was more than 30 µM each time.
Regarding `CN1c2ccccc2N(C)C1c1ccc2c(c1)OCO2`, the IC50 in assay [1] and in assay [2] was more than 30 µM throughout.
Regarding `O=C(NCC1Cc2cccc(-c3ccncc3)c2O1)c1csc2c1CCCC2` (stereo unspecified), the IC50 in assay [1] and in assay [2] was more than 30 µM each time.
Take `C=C(C)CCC(C)N1CCC(N2CCC(C(=O)NCCc3ccccc3)CC2)CC1` (stereo unspecified): the half-maximal inhibitory concentration (IC50) was more than 30 µM in assay [1] and 27.1 µM in assay [2].
The matching figures for `C=CCc1c(C)nc2ccccc2c1O`: more than 30 µM and more than 30 µM.
